Assay results: US10889565B2, “4-hydroxy-3-sulfonylpyridin-2(1H)-ones as APJ receptor agonists” (BRISTOL-MYERS SQUIBB COMPANY, priority 2016, dated 2021)
pEC50: −log10 of the molar value.

target: T1, human APJ receptor (Homo sapiens, UniProt P35414); experiment: Intracellular cAMP accumulation assay (APJ hcAMP, HTRF); assay type: cell-based; conditions: HEK293 cells stably expressing human APJ receptor; inhibition of forskolin-mediated cAMP production; read-out: Human APJ cAMP EC50 Potency range
T1 construct: expressed in transfected cells
T1 sequence (P35414 1-380): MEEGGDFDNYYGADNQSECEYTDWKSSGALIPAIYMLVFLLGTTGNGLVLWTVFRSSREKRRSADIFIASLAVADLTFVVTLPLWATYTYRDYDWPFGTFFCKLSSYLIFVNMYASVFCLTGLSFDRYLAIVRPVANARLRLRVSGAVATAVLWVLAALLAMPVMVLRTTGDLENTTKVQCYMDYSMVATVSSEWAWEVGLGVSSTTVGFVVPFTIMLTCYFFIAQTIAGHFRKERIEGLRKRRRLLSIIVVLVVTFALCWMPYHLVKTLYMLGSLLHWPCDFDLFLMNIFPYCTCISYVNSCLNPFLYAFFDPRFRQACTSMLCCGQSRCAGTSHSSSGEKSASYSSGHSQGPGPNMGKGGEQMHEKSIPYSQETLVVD
Protocol: Intracellular cAMP Accumulation Assay
HEK293 cells stably expressing human APJ receptor were used to assess the activity of compounds. Cultured cells were detached and resuspended in the cAMP Homogeneous Time-Resolved Fluorescence (HTRF) assay buffer (Cisbio cat; #62AM4PEJ). The assay was performed in 384-well assay plates (Perkin-Elmer; cat #6008289) according to assay protocol provided by the manufacturer. Serial dilutions of a compound together with assay buffer containing […] IBMX and 2 μM forskolin were added to each well containing 5,000 cells and incubated for 30 minutes at room temperature. Subsequently, cAMP D2 reagent was added in the lysis buffer followed by the EuK antibody (Cisbio; cat #62AM4PEJ) and incubated for 60 min. The fluorescence emission ratio was measured using fluorometer. The intracellular cAMP concentrations (compound-stimulated inhibition of forskolin-mediated cAMP production) were calculated by extrapolation from a standard curve using known cAMP concentrations. The EC50 values were obtained by fitting the data to a sigmoidal concentration-response curve with variable slope. The maximal achievable inhibition of forskolin-induced cAMP levels (Ymax) for each compound was expressed as relative percentage of inhibition attained using pyroglutamated apelin-13 ((Pyr1)apelin-13) peptide, which was set to 100%.
The examples disclosed below were tested in the APJ in vitro assays described above and were found having human APJ cyclic AMP (hcAMP) activity. The EC50 value of each compound is presented at the end of the example description.
The biological activity of the exemplified compounds of this invention determined by the assay described above is shown at the end of each example.

Row | pEC50 | Structure (SMILES)
1 | 8.00 to 11.00 | CCOCc1[nH]c(=O)c(S(=O)(=O)c2ccc(-n3cc(C)ccc3=O)cc2)c(O)c1-c1c(OC)cccc1OC [Example 24, 5-(2,6-dimethoxy-phenyl)-6-(ethoxymethyl)-4-hydroxy-3-((4-(5-methyl-2-oxopyridin-1(2H)-yl)phenyl)sulfonyl) pyridin-2(1H)-one]
2 | 8.00 to 11.00 | CCCCc1[nH]c(=O)c(S(=O)(=O)c2ccc(-c3ccc(F)nc3)cn2)c(O)c1-c1c(OC)cccc1OC [Example 42, 6-butyl-5-(2,6-dimethoxy-phenyl)-3-((6′-fluoro-[3,3′-bipyridin]-6-yl)sulfonyl)-4-hydroxypyridin-2(1H)-one]
3 | 8.00 to 11.00 | CCCCc1[nH]c(=O)c(S(=O)(=O)c2ccc(Br)cn2)c(O)c1-c1c(OC)cccc1OC [Example 32, 3-((5-bromopyridin-2-yl)sulfonyl)-6-butyl-5-(2,6-dimethoxyphenyl)-4-hydroxypyridin-2(1H)-one]
4 | 8.00 to 11.00 | CCCCc1[nH]c(=O)c(S(=O)(=O)c2ccccn2)c(O)c1-c1c(OC)cccc1OC [Example 46, 6-butyl-5-(2,6-dimethoxy-phenyl)-4-hydroxy-3-(pyridin-2-ylsulfonyl) pyridin-2(1H)-one]
5 | 8.00 to 11.00 | C=C(C)c1ccc(S(=O)(=O)c2c(O)c(-c3c(OC)cccc3OC)c(CCCC)[nH]c2=O)nc1 [Example 49, 6-Butyl-5-(2,6-dimethoxyphenyl)-4-hydroxy-3-((5-(prop-1-en-2-yl)pyridin-2-yl)sulfonyl)pyridin-2(1H)-one]
6 | 8.00 to 11.00 | CCCCc1[nH]c(=O)c(S(=O)(=O)c2ccc(-c3cccc(F)c3C)cn2)c(O)c1-c1c(OC)cccc1OC [Example 38, 6-butyl-5-(2,6-dimethoxy-phenyl)-3-((5-(3-fluoro-2-methylphenyl)pyridin-2-yl)sulfonyl)-4-hydroxy-pyridin-2(1H)-one]
7 | 8.00 to 11.00 | CCCCc1[nH]c(=O)c(S(=O)(=O)c2ccc(-n3ccccc3=O)cc2)c(O)c1-c1c(OC)cccc1OC [Example 22, 6-butyl-5-(2,6-dimethoxy-phenyl)-4-hydroxy-3-((4-(2-oxopyridin-1(2H)-yl)phenyl)sulfonyl) pyridin-2(1H)-one]
8 | 8.00 to 11.00 | CCCCc1[nH]c(=O)c(S(=O)(=O)c2ccc(-n3cc(C)ccc3=O)cc2)c(O)c1-c1c(OC)cccc1OC [Example 20, 6-butyl-5-(2,6-dimethoxy-phenyl)-4-hydroxy-3-((4-(5-methyl-2-oxopyridin-1(2H)-yl)phenyl)sulfonyl) pyridin-2(1H)-one]
9 | 8.00 to 11.00 | CCCCc1[nH]c(=O)c(S(=O)(=O)c2ccc(NC(=O)OC(C)(C)C)cc2)c(O)c1-c1c(OC)cccc1OC [Example 8, tert-butyl (4-((6-butyl-5-(2,6-dimethoxy-phenyl)-4-hydroxy-2-oxo-1,2-dihydro-pyridin-3-yl)sulfonyl)phenyl) carbamate]
10 | 8.00 to 11.00 | COc1cccc(OC)c1-c1c(-c2ccc(F)cc2)[nH]c(=O)c(S(=O)(=O)c2ccc(-c3ccc(F)nc3C)cc2)c1O [Example 17, 5-(2,6-dimethoxy-phenyl)-3-((4-(6-fluoro-2-methyl-pyridin-3-yl)phenyl)sulfonyl)-6-(4-fluoro-phenyl)-4-hydroxy-pyridin-2(1H)-one]
11 | 8.00 to 11.00 | CCCCc1[nH]c(=O)c(S(=O)(=O)c2ccc(C)cn2)c(O)c1-c1c(OC)cccc1OC [Example 39, 6-butyl-5-(2,6-dimethoxy-phenyl)-4-hydroxy-3-((5-methyl-pyridin-2-yl)sulfonyl) pyridin-2(1H)-one]
12 | 8.00 to 11.00 | CCCCc1[nH]c(=O)c(S(=O)(=O)c2ccc(N)cc2)c(O)c1-c1c(OC)cccc1OC [Example 27, 3-((4-aminophenyl)sulfonyl)-6-butyl-5-(2,6-dimethoxyphenyl)-4-hydroxypyridin-2(1H)-one]
13 | 8.00 to 11.00 | CCOCc1[nH]c(=O)c(S(=O)(=O)c2ccc(-c3ccc(F)cc3)cc2)c(O)c1-c1c(OC)cccc1OC [Example 9, 5-(2,6-dimethoxy-phenyl)-6-(ethoxymethyl)-3-((4′-fluoro-[1,1′-biphenyl]-4-yl)sulfonyl)-4-hydroxypyridin-2(1H)-one]
14 | 8.00 to 11.00 | CCCCc1[nH]c(=O)c(S(=O)(=O)c2ccc(C(C)C)cn2)c(O)c1-c1c(OC)cccc1OC [Example 50, 6-Butyl-5-(2,6-dimethoxyphenyl)-4-hydroxy-3-((5-isopropylpyridin-2-yl)sulfonyl)pyridin-2(1H)-one]
15 | 8.00 to 11.00 | CCCCc1[nH]c(=O)c(S(=O)(=O)c2ccc(-n3cc(Cl)ccc3=O)cc2)c(O)c1-c1c(OC)cccc1OC [Example 19, 6-Butyl-3-((4-(5-chloro-2-oxopyridin-1 (2H)-yl)phenyl)sulfonyl)-5-(2,6-dimethoxyphenyl)-4-hydroxypyridin-2(1H)-one]
16 | 8.00 to 11.00 | CCCCc1[nH]c(=O)c(S(=O)(=O)c2ccc(-c3ccncc3C)cc2)c(O)c1-c1c(OC)cccc1OC [Example 3, 6-butyl-5-(2,6-dimethoxy-phenyl)-4-hydroxy-3-((4-(3-methyl-pyridin-4-yl)phenyl)sulfonyl) pyridin-2(1H)-one]
17 | 8.00 to 11.00 | CCCCc1[nH]c(=O)c(S(=O)(=O)c2ccc(C3CC3)cn2)c(O)c1-c1c(OC)cccc1OC [Example 51, 6-Butyl-3-((5-cyclopropylpyridin-2-yl)sulfonyl)-5-(2,6-dimethoxyphenyl)-4-hydroxypyridin-2(1H)-one]
18 | 8.00 to 11.00 | CCCCc1[nH]c(=O)c(S(=O)(=O)c2ccc(-c3ccc(F)nc3)cc2)c(O)c1-c1c(OC)cccc1OC [Example 6, 6-butyl-5-(2,6-dimethoxy-phenyl)-3-((4-(6-fluoro-pyridin-3-yl)phenyl)sulfonyl)-4-hydroxy-pyridin-2(1H)-one]
19 | 8.00 to 11.00 | COc1cccc(OC)c1-c1c(-c2ccc(F)cc2)[nH]c(=O)c(S(=O)(=O)c2ccc(-c3ccnc(F)c3C)cc2)c1O [Example 16, 5-(2,6-dimethoxy-phenyl)-3-((4-(2-fluoro-3-methyl-pyridin-4-yl)phenyl)sulfonyl)-6-(4-fluoro-phenyl)-4-hydroxy-pyridin-2(1H)-one]
20 | 6.52 to 7.00 | CCCCc1[nH]c(=O)c(S(=O)(=O)c2cccc[n+]2[O-])c(O)c1-c1c(OC)cccc1OC [Example 18, 6-butyl-5-(2,6-dimethoxy-phenyl)-4-hydroxy-3-((1-hydroxy-1l4-pyridin-2-yl)sulfonyl) pyridin-2(1H)-one]
21 | 8.00 to 11.00 | CCOCc1[nH]c(=O)c(S(=O)(=O)c2ccc(C3CC3)cc2)c(O)c1-c1c(OC)cccc1OC [Example 11, 3-((4-cyclo-propylphenyl)sulfonyl)-5-(2,6-dimethoxy-phenyl)-6-(ethoxymethyl)-4-hydroxy-pyridin-2(1H)-one]
22 | 8.00 to 11.00 | CCCCc1[nH]c(=O)c(S(=O)(=O)c2ccc(-c3cncc(F)c3)cc2)c(O)c1-c1c(OC)cccc1OC [Example 4, 6-butyl-5-(2,6-dimethoxy-phenyl)-3-((4-(5-fluoro-pyridin-3-yl)phenyl)sulfonyl)-4-hydroxy-pyridin-2(1H)-one]
23 | 8.00 to 11.00 | CCCCc1[nH]c(=O)c(S(=O)(=O)c2ccc(-c3ccnc(F)c3C)cn2)c(O)c1-c1c(OC)cccc1OC [Example 33, 6-butyl-5-(2,6-dimethoxy-phenyl)-3-((2′-fluoro-3′-methyl-[3,4′-bipyridin]-6-yl)sulfonyl)-4-hydroxy-pyridin-2(1H)-one]
